In brackets after ≈: the same amount, converted by molar mass. Where two headings read alike, the source gives them in different places.
What was measured:
in vitro [1] = format: in vitro ADME; details: plasma
Text: Human blood from nonidentifiable volunteer donors was sourced from the Australian Red Cross Blood Service under a supply agreement approved by the Monash Human Research Ethics Committee. Mouse blood was collected in-house under tissue harvesting protocols approved by the Monash Institute of Pharmaceutical Sciences Animal Ethics Committee. Pooled human and Swiss outbred mouse plasma samples were thawed and spiked with test compound solutions prepared in DMSO/acetonitrile/water (20:40:40) to provide a final compound concentration of 1,000 ng ml^−1 and final DMSO and acetonitrile concentrations of 0.2% and 0.4% (v/v), respectively. Plasma was vortex mixed and aliquots (50 μl) were transferred to fresh microcentrifuge tubes and incubated at 37 °C. At various time points over the 6 h incubation period, duplicate plasma samples were removed and immediately snap-frozen in dry ice. All samples were stored frozen at −80 °C until analysis by LC–MS. Samples were processed by protein precipitation using a two-fold excess of acetonitrile followed by centrifugation. Analysis of the supernate was conducted using a Waters (Milford, MA) Acquity UPLC coupled to a Waters Micromass Quattro Premier mass spectrometer operated in positive electrospray ionization mode with multiple reaction monitoring. The cone voltage was 45 V, collision energy was 30, 30 and 40 V for 25, 36 and 37, respectively, and m/z transitions were 782.30>126.06 (25), 826.32>170.16 (36) and 888.39>126.06 (37). Processed samples (3 μl) were injected onto a Supelco Ascentis Express RP Amide column (50 × 2.1 mm, 2.7 μm) and analytes eluted using a water/acetonitrile (each containing 0.05% formic acid) gradient over 4 min with a flow rate was 0.4 ml min^−1. Sample concentrations were quantitated by comparison to a calibration curve prepared in blank human or mouse plasma.

Mtb MurX [2] = molecular target: T1, Mtb MurX (Mycobacterium tuberculosis, UniProt P9WMW7); assay: Radiochemical (TLC) MurX-MurG coupled inhibition assay in Mtb mc2 6230 membranes; format: biochemical; details: for inhibition at 0.2 µM: 200 nM inhibitor, decrease in lipid II formation
HEK293 cells = assay: Cytotoxicity counter-screen, resazurin reduction microplate assay; format: cell-based; details: Homo sapiens, tested up to 200 μM, read-out: MIC50 (HEK293)
in vitro [3] = format: in vitro ADME; details: microsomes; for Average half-life: 0.5 μM; for half-life at 0.5 μM: Average half-life
Protocol: The metabolic stability was assessed by incubating each test compound (0.5 μM) in duplicate with human and mouse liver microsomes (XenoTech, Kansas City, KS) at 37 °C and 0.4 mg ml^−1 microsomal protein. The metabolic reaction was initiated by the addition of an NADPH-regenerating system and quenched at various time points over a 60 min incubation period by the addition of acetonitrile containing diazepam as internal standard. Control samples (containing no NADPH) were included and quenched at 2, 30 and 60 min to monitor for potential degradation in the absence of cofactor. Samples were centrifuged and the supernatant analysed by LCMS. Analysis was conducted using a Waters Acquity UPLC coupled to a Waters Xevo G2 QTOF mass spectrometer operated in positive electrospray ionization MS^E mode with a cone voltage of 30 V. Samples (5 μl) were injected onto an Ascentis Express Amide column (50 × 2.1 mm, 2.7 μm) and eluted using a water/acetonitrile (both containing 0.05% formic acid) gradient over 4 min at a flow rate of 0.4 ml min^−1. Degradation rate half-lives and in vitro intrinsic clearance values were determined from the first order degradation profiles.

Mtb MurX [4] = molecular target: T1, Mtb MurX; assay: biochemical
Mtb H37Ra in THP-1 cells = assay: Intracellular assay, Mtb-infected THP-1 macrophages, CFU count; details: read-out: IC50 intracellular anti-mycobacterial activity; THP-1 macrophages infected with Mtb (H37Ra), average of 2 independent experiments
Mtb H37Rv = assay: Resazurin reduction microplate assay, growth inhibition of Mtb H37Rv; format: cell-based, Mycobacterium tuberculosis; details: Mycobacterium tuberculosis, H37RV
H37Rv = system: H37Rv; design: method as in Xie et al. 14, 15; details: isolated natural products; ref Xie et al. 14, 15; cited from earlier work
[5] = Mtb H37Rv, read-out: MIC50 against Mtb
[6] = average of two independent experiments, each in triplicate, read-out: MIC50 Mtb H37Rv

T1 sequence (P9WMW7 whole entry): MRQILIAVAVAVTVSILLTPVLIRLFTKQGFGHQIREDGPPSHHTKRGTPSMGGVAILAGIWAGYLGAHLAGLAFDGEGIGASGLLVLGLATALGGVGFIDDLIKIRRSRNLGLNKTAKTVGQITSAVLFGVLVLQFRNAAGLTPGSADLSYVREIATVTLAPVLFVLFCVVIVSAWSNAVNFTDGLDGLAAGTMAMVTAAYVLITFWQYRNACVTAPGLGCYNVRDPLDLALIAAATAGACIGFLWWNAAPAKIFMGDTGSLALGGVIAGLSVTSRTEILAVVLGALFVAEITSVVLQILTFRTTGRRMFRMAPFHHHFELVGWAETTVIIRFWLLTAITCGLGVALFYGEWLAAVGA

Molecule | half-life at 1000 ng/ml (in vitro [1]; Swiss outbred, mouse) [h] | half-life at 1000 ng/ml (in vitro [1]; human) [h] | IC50 (Mtb MurX [2]) [nM] | inhibition at 0.2 µM (Mtb MurX [2]) [%] | CC50 (HEK293 cells) [nM] | microsomal CLint at 0.5 μM (in vitro [3]; human) [µL/min/mg] | Average half-life (in vitro [3]; human) [h] | half-life at 0.5 μM (in vitro [3]; human) [h] | microsomal CLint at 0.5 μM (in vitro [3]; mouse) [µL/min/mg] | Average half-life (in vitro [3]; mouse) [h] | half-life at 0.5 μM (in vitro [3]; mouse) [h] | IC50 (Mtb MurX [4]) [nM] | IC50 (Mtb H37Ra in THP-1 cells) [nM] | MIC50 (Mtb H37Rv; [5]) [µM] | MIC50 (Mtb H37Rv; [6]) [µM] | MIC (H37Rv) (H37Rv) [µM] | IC50 (Mtb MurX [4]; read-out: IC50 Mtb MurX, fluorescence assay) [nM]
C[C@@H]([C@H](NC(=O)[C@H](CC1CCCCC1)NC(=O)N[C@@H](Cc1c[nH]c2ccccc12)C(=O)O)C(=O)NC[C@H]1C[C@@H](O)[C@H](n2ccc(=O)[nH]c2=O)O1)N(C)C(=O)[C@@H](N)Cc1cccc(O)c1 [Compound 37] | > 7 | > 7 | 41 | 100 | > 200000 | 10 | > 2.67 | 2.9 | 7 | > 2.67 | 3.88 | 16 | 110 | 0.037 (≈ 0.0329 µg/mL) | 0.037 ± 0.06 (≈ 0.0329 µg/mL) |  | 
CC(C)C[C@H](NC(=O)N[C@@H](Cc1c[nH]c2ccccc12)C(=O)O)C(=O)N[C@H](C(=O)N/C=C1/C[C@@H](O)[C@H](n2ccc(=O)[nH]c2=O)O1)[C@H](C)N(C)C(=O)[C@@H](N)c1cccc(O)c1 [Compound 2, Sansanmycin B] |  |  |  |  |  |  |  |  |  |  |  |  |  |  |  | 9.5 (≈ 7.9 µg/mL) | 
C[C@@H]([C@H](NC(=O)[C@H](Cc1ccc2ccccc2c1)NC(=O)N[C@@H](Cc1c[nH]c2ccccc12)C(=O)O)C(=O)NC[C@H]1C[C@@H](O)[C@H](n2ccc(=O)[nH]c2=O)O1)N(C)C(=O)CN [Compound 36] | > 7 | > 7 | 48 | 100 | > 200000 | < 7 | > 2.67 | > 4.12 | 10 | > 2.67 | 2.77 | 14 | 4330 | 0.18 (≈ 0.149 µg/mL) | 0.18 ± 0.02 (≈ 0.149 µg/mL) |  | 
C[C@@H]([C@H](NC(=O)[C@H](CC1CCCCC1)NC(=O)N[C@@H](Cc1c[nH]c2ccccc12)C(=O)O)C(=O)NC[C@H]1C[C@@H](O)[C@H](n2ccc(=O)[nH]c2=O)O1)N(C)C(=O)CN [Compound 25] | > 7 | > 7 | 54 | 100 | > 200000 | < 7 | > 2.67 | > 4.12 | < 7 | > 2.67 | > 4.12 | 30 | 1570 | 0.08 (≈ 0.0625 µg/mL) | 0.08 ± 0.02 (≈ 0.0625 µg/mL) |  | 
tunicamycin [reference compound] |  |  |  |  |  |  |  |  |  |  |  |  |  |  |  |  | 189
C[C@@H]([C@H](NC(=O)[C@H](CC[S+](C)[O-])NC(=O)N[C@@H](Cc1c[nH]c2ccccc12)C(=O)O)C(=O)N/C=C1/C[C@@H](O)[C@H](n2ccc(=O)[nH]c2=O)O1)N(C)C(=O)[C@@H](N)c1cccc(O)c1 (stereo partly shown) [Compound 3, Sansanmycin C] |  |  |  |  |  |  |  |  |  |  |  |  |  |  |  | > 36.3 | 
CSCC[C@H](NC(=O)N[C@@H](Cc1c[nH]c2ccccc12)C(=O)O)C(=O)N[C@H](C(=O)N/C=C1/C[C@@H](O)[C@H](n2ccc(=O)[nH]c2=O)O1)[C@H](C)N(C)C(=O)[C@@H](N)c1cccc(O)c1 [Compound 1, Sansanmycin A] |  |  |  |  |  |  |  |  |  |  |  |  |  |  |  | 18.5 (≈ 15.7 µg/mL) | 

From PMC5337940, “Sansanmycin natural product analogues as potent and selective anti-mycobacterials that inhibit lipid I biosynthesis” (Nature Communications, 2017)
